According to the supplement of paper PMC10307832:

Assays:
Test in all cases: relative viability (nuclei count vs DMSO), 5 days (fraction); higher = more cells survive
Carfilzomib + Lapatinib = compound: CC(C)C[C@H](NC(=O)[C@H](CCc1ccccc1)NC(=O)CN1CCOCC1)C(=O)N[C@@H](Cc1ccccc1)C(=O)N[C@@H](CC(C)C)C(=O)[C@@]1(C)CO1 [Carfilzomib] + CS(=O)(=O)CCNCc1ccc(-c2ccc3ncnc(Nc4ccc(OCc5cccc(F)c5)c(Cl)c4)c3c2)o1 [Lapatinib] (partner 2 µM)
How it was run: (§1)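 Lung cancer cell lines were seeded in 1536-well plates and dosed by pin tool the next day, with either a single drug or a fixed anchor-drug dose combined with five library-drug doses (not always all listed) spaced in √10 steps. Five days later, one step fixed the cells and stained their nuclei (final 0.05% Triton X-100, 1% formaldehyde, 1 ug/ml Hoechst), and nuclei were counted on 4× images. Relative viability is the nuclei count in treated wells divided by the count in vehicle wells, and each value is the median of duplicate plates.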

Crizotinib + OSI-027 = compound: C[C@@H](Oc1cc(-c2cnn(C3CCNCC3)c2)cnc1N)c1c(Cl)ccc(F)c1Cl [Crizotinib] + COc1cccc2cc(-c3nc([C@H]4CC[C@H](C(=O)O)CC4)n4ncnc(N)c34)[nH]c12 [OSI-027] (partner 0.5 µM)
How it was run: as §1

Crizotinib + Lapatinib = compound: C[C@@H](Oc1cc(-c2cnn(C3CCNCC3)c2)cnc1N)c1c(Cl)ccc(F)c1Cl [Crizotinib] + CS(=O)(=O)CCNCc1ccc(-c2ccc3ncnc(Nc4ccc(OCc5cccc(F)c5)c(Cl)c4)c3c2)o1 [Lapatinib] (partner 2 µM)
How it was run: as §1

Olaparib + Vorinostat = compound: O=C(c1cc(Cc2n[nH]c(=O)c3ccccc23)ccc1F)N1CCN(C(=O)C2CC2)CC1 [Olaparib] + O=C(CCCCCCC(=O)Nc1ccccc1)NO [Vorinostat] (partner 1 µM)
How it was run: as §1

| Cell Line | relative viability (Carfilzomib + Lapatinib; first compound 0.001 µM) | relative viability (Carfilzomib + Lapatinib; first compound 0.003162 µM) | relative viability (Carfilzomib + Lapatinib; first compound 0.01 µM) | relative viability (Carfilzomib + Lapatinib; first compound 0.03162 µM) | relative viability (Carfilzomib + Lapatinib; first compound 0.1 µM) | relative viability (Crizotinib + OSI-027; first compound 0.01 µM) | relative viability (Crizotinib + OSI-027; first compound 0.03162 µM) | relative viability (Crizotinib + OSI-027; first compound 0.1 µM) | relative viability (Crizotinib + OSI-027; first compound 1 µM) | relative viability (Crizotinib + Lapatinib; first compound 0.01 µM) | relative viability (Crizotinib + Lapatinib; first compound 0.03162 µM) | relative viability (Crizotinib + Lapatinib; first compound 0.1 µM) | relative viability (Crizotinib + Lapatinib; first compound 1 µM) | relative viability (Olaparib + Vorinostat; first compound 0.08 µM) | relative viability (Olaparib + Vorinostat; first compound 0.253 µM) | relative viability (Olaparib + Vorinostat; first compound 2.53 µM) | relative viability (Olaparib + Vorinostat; first compound 8 µM) | relative viability (Crizotinib + OSI-027; first compound 0.3162 µM) | relative viability (Crizotinib + Lapatinib; first compound 0.3162 µM) |
| --- | --- | --- | --- | --- | --- | --- | --- | --- | --- | --- | --- | --- | --- | --- | --- | --- | --- | --- | --- |
| NCI-H1915 | 0.937 | 1.02 | 0.973 | 0.586 | 0.0673 | 0.563 | 0.63 | 0.636 | 0.608 | 0.902 | 0.95 | 1.01 | 0.969 | 0.495 | 0.438 | 0.373 | 0.281 |  |  |
| NCI-H1944 | 0.762 | 0.858 | 0.7 | 0.793 | 0.326 | 0.396 | 0.421 | 0.402 | 0.397 | 0.751 | 0.82 | 0.767 | 0.863 | 0.534 | 0.423 | 0.399 | 0.367 | 0.391 | 0.715 |
| NCI-H1975 | 0.76 | 0.911 | 0.389 | 0.116 | 0.135 | 0.72 | 0.812 | 0.755 | 0.721 | 0.719 | 1.01 | 0.971 | 0.869 | 0.739 | 0.649 | 0.717 | 0.624 | 0.754 | 0.798 |
| NCI-H1993 | 0.729 | 0.89 | 0.704 | 0.632 | 0.493 | 0.564 | 0.507 | 0.543 | 0.563 | 0.687 | 0.843 | 0.781 | 0.707 | 0.962 | 0.869 | 0.82 | 0.88 | 0.516 | 0.681 |
| NCI-H2009 | 1.02 | 1.37 | 0.828 | 0.0609 | 0.0756 | 0.704 | 0.611 | 0.64 | 0.642 | 0.845 | 0.984 | 0.956 | 0.93 | 0.836 | 0.666 | 0.674 | 0.645 | 0.594 | 0.812 |
| NCI-H2023 | 0.734 | 0.979 | 0.925 | 0.302 | 0.0574 | 0.354 | 0.438 | 0.359 | 0.329 | 0.864 | 0.884 | 0.71 | 0.465 | 0.734 | 0.531 | 0.507 | 0.315 | 0.297 | 0.372 |
| NCI-H2085 | 0.663 | 0.843 | 0.714 | 0.444 | 0.252 | 0.552 | 0.985 | 0.66 | 0.748 | 0.724 | 0.899 | 0.785 | 0.715 | 0.844 | 0.703 | 0.749 | 0.616 |  | 0.709 |
| NCI-H2087 | 0.823 | 1.35 | 0.829 | 0.112 | 0.116 | 0.442 | 0.611 | 0.548 | 0.327 | 0.936 | 1.07 | 0.915 | 1.06 | 0.834 | 0.761 | 0.658 | 0.546 |  | 0.557 |
